Laboratory results reported in US12527797B2, “Isochromene derivatives as phosphoinositide 3-kinases inhibitors” (CHIESI FARMACEUTICI S.P.A., priority 2019, dated 2026).
Like-named read-outs stand apart in the source and are kept apart here.

Experiments:
PI3Kδ [1] = target: T1, PI3Kδ (Homo sapiens, UniProt O00329); settings: cell free assay; reproduced from WO2015091685; read-out: PI3K delta inhibition; cited from earlier work
T1 construct: purchased Millipore Ltd (Billerica, MA)

PI3Kα = target: T2, PI3Kα (Homo sapiens, UniProt P42336); settings: cell free assay; reproduced from WO2015091685; read-out: PI3K alpha inhibition; cited from earlier work
T2 construct: purchased Millipore Ltd (Billerica, MA)
T2 sequence (P42336 whole entry): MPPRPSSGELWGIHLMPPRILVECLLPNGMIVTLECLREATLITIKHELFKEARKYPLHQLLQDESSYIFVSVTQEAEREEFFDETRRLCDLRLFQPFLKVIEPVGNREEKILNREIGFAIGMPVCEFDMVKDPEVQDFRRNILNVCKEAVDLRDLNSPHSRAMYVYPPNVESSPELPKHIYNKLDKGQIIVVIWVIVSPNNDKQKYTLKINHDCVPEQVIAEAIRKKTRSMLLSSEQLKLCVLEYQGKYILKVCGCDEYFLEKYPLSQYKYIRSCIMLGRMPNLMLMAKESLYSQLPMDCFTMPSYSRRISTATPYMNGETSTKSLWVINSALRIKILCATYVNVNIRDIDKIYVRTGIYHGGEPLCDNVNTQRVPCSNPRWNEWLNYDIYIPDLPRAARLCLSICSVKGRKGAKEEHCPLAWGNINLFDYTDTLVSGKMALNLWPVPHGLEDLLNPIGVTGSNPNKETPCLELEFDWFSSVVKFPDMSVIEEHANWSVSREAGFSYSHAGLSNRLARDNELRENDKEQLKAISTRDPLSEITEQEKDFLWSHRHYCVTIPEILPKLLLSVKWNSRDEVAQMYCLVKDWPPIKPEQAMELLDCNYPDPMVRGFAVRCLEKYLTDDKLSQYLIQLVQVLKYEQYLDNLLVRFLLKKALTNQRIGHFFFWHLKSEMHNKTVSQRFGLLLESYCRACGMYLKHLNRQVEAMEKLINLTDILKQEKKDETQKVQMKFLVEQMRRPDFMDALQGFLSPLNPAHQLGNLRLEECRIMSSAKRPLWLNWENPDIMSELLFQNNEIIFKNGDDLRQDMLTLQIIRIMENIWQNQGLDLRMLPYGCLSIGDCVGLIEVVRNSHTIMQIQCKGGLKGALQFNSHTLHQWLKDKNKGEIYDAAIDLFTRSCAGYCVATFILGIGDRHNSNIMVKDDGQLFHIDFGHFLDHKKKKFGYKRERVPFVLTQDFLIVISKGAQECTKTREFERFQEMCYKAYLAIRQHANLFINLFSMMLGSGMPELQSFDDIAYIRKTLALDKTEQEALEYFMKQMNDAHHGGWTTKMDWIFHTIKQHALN

PI3Kγ = target: T3, PI3Kγ (Homo sapiens, UniProt P48736); settings: cell free assay; reproduced from WO2015091685; read-out: PI3K gamma inhibition; cited from earlier work
T3 construct: purchased Millipore Ltd (Billerica, MA)
T3 sequence (P48736 whole entry): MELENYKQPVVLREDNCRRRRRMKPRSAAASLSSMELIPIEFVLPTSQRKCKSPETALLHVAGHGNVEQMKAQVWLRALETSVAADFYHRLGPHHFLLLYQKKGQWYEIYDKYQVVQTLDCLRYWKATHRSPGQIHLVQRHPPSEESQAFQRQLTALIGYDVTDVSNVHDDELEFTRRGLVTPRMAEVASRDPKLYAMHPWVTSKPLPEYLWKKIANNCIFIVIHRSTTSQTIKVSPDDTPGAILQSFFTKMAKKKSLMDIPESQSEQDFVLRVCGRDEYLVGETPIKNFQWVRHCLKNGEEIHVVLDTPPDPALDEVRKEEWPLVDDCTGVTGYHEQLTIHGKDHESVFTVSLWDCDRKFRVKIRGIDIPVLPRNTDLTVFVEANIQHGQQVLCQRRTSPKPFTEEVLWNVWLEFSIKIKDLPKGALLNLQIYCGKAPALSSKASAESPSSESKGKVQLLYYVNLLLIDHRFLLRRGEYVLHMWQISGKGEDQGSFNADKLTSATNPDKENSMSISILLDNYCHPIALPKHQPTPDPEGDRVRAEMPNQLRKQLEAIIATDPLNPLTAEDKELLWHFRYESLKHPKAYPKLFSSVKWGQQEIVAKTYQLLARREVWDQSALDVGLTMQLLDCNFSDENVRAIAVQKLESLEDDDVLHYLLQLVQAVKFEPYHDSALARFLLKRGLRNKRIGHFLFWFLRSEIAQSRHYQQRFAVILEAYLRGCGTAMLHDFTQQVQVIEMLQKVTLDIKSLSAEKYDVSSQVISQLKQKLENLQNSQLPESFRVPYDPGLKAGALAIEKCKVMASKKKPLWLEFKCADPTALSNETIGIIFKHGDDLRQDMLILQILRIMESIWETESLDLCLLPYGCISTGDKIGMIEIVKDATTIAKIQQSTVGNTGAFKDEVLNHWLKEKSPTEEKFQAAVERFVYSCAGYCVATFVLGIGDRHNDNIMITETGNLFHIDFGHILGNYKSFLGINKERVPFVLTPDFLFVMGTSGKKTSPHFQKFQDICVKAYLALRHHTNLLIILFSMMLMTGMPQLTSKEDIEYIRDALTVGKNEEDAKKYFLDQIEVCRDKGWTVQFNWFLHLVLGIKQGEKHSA

PI3Kβ = target: T4, PI3Kβ (Homo sapiens, UniProt P42338); settings: cell free assay; reproduced from WO2015091685; read-out: PI3K beta inhibition; cited from earlier work
T4 construct: purchased Millipore Ltd (Billerica, MA)
T4 sequence (P42338 whole entry): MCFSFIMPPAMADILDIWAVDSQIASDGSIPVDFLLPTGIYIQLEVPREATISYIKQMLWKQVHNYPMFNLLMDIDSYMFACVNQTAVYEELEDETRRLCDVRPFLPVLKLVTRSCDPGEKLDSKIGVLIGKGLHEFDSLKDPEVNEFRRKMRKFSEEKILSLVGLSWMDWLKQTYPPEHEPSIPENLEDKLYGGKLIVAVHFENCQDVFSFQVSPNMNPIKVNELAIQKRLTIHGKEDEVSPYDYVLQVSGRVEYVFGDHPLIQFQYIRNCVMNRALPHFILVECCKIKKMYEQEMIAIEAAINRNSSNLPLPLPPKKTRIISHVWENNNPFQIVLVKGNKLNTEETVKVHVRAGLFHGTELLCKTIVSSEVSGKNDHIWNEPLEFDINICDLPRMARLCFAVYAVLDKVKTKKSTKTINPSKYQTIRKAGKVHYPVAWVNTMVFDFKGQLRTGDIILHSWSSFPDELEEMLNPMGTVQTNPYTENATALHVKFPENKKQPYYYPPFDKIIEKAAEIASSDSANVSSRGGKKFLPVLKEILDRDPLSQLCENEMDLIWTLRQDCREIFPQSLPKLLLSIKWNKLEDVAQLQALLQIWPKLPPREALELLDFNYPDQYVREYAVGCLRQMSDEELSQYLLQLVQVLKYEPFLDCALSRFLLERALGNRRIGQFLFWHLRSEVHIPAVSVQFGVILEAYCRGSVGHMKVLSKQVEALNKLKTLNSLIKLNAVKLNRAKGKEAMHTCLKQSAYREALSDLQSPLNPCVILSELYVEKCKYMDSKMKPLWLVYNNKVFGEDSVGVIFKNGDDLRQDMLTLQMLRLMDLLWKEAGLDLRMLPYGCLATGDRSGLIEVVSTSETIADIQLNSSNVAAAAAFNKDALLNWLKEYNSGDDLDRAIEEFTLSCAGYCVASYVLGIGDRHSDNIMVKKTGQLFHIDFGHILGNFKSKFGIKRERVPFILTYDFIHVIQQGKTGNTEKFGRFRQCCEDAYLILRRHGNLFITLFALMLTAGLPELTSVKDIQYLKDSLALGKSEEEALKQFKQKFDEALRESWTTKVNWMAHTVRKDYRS

[2] = tested on: PI3Kδ-AKT pathway endogenously expressed on THP-1 cells; experiment: PI3Kδ enzyme inhibitory activity in the THP-1 assay (M-CSF stimulated pAKT, HTRF); assay type: cell-based; settings: for IC50: Homo sapiens, THP-1 cells, M-CSF 2.5 ng/mL, pAKT Ser473, read-out: THP-1 IC50 nM Cellular; for Delta cell drop-off (Cellular/enzymatic activity = THP-1 IC50 nM/Delta Ki nM): ratio THP-1 IC50 / Delta Ki
[3] = tested on: Ovalbumin (OVA) induced lung eosinophilia; experiment: Rat model of ovalbumin (OVA) induced lung eosinophilia (WET administration, saline suspension i.t.); assay type: in vivo, Brown Norway rats
PI3Kδ [4] = target: T1, PI3Kδ; experiment: PI3K enzyme inhibitory activity in the cell free assay (ADP-Glo Kinase Assay); assay type: biochemical; settings: cell free enzymatic assay; for IC50: ATP 80 μM, read-out: Enzymatic Delta IC50; for Ki: read-out: Enzymatic Delta Ki
Lung retention = settings: reason why not tested in OVA model
[5] = administered 12 h before OVA challenge, 0.1 μmol/kg (ED80) for compounds of the invention

T1 sequence (O00329 whole entry): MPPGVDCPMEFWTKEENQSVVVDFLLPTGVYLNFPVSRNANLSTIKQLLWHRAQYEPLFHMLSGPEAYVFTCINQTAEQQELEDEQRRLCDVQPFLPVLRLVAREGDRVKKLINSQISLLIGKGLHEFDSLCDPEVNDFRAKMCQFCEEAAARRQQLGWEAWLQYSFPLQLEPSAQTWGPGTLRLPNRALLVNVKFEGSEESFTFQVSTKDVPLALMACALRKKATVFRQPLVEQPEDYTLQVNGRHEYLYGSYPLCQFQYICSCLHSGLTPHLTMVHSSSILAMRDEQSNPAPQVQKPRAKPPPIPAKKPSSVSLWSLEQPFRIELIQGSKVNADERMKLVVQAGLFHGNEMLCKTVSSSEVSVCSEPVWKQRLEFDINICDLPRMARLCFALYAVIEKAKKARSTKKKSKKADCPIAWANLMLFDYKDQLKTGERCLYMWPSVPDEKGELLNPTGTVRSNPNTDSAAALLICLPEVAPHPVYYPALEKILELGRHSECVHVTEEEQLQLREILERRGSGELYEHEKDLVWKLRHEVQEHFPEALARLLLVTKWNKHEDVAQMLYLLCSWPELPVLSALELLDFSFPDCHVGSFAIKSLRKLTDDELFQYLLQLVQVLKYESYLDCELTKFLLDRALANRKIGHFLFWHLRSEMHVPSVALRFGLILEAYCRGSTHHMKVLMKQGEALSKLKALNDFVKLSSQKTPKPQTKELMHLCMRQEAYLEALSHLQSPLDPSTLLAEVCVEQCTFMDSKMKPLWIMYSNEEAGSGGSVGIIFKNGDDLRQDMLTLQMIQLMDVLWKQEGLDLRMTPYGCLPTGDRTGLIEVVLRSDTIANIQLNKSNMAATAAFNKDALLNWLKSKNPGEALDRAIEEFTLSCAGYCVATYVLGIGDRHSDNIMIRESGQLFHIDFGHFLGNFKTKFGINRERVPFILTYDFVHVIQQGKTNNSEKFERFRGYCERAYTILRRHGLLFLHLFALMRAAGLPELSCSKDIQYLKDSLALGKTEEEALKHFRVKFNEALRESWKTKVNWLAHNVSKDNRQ
T1 sequence (P27986 whole entry partner): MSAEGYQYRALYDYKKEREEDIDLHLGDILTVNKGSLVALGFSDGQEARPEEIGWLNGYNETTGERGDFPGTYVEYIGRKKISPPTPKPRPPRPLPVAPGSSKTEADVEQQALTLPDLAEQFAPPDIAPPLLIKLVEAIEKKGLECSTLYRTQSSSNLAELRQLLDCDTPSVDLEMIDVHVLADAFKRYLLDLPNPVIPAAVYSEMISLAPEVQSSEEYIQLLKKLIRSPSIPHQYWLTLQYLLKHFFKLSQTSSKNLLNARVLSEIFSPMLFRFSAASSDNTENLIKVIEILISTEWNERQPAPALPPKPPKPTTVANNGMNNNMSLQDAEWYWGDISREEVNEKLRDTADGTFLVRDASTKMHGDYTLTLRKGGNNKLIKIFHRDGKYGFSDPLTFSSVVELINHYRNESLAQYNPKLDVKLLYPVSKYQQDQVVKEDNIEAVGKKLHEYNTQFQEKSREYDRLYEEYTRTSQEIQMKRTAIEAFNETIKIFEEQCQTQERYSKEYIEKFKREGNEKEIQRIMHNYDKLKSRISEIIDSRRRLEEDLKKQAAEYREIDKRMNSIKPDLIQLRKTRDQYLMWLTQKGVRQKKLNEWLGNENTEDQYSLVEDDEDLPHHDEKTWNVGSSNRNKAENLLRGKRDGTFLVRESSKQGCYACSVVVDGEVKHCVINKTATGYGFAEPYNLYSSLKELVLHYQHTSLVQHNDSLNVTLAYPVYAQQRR

## CC(c1oc(=O)c2ccccc2c1-c1cccc(CN2CCN(C)CC2)c1)n1nc(-c2cc(O)cc(F)c2)c2c(N)ncnc21 (racemic) [Example 142, 3-(1-(4-amino-3-(3-fluoro-5-hydroxyphenyl)-1H-pyrazolo[3,4-d]pyrimidin-1-yl)ethyl)-4-(3-((4-methylpiperazin-1-yl)methyl)phenyl)-1H-isochromen-1-one]
PI3Kδ [1]
  IC50: < 10 nM
PI3Kα
  IC50: > 1000 nM
PI3Kγ
  IC50: > 1000 nM
PI3Kβ
  IC50: > 1000 nM

## CC(c1oc(=O)c2ccccc2c1-c1cccc(CN2CCN(C)CC2)c1)n1nc(-c2cc(O)cc(F)c2)c2c(N)ncnc21 (single isomer, unassigned) [Comparative example 1, 3-(1-(4-amino-3-(3-fluoro-5-hydroxyphenyl)-1H-pyrazolo[3,4-d]pyrimidin-1-yl)ethyl)-4-(3-((4-methylpiperazin-1-yl)methyl)phenyl)-1H-isochromen-1-one, reference compound]
[2]
  IC50: 1.8 nM
  Delta cell drop-off (Cellular/enzymatic activity = THP-1 IC50 nM/Delta Ki nM): 1.6
[3]; [5]
  % of inhibition (eosinophil recruitment in BALF): 0% (Not durable)
PI3Kδ [4]
  IC50: 2.2 nM
  Ki: 1.1 nM

## CC(c1oc(=O)c2ccccc2c1-c1ccccc1)n1nc(-c2cncc(O)c2)c2c(N)ncnc21 (single isomer, unassigned) [Comparative example 2, reference compound]
[2]
  IC50: 1.6 nM
Lung retention
  lung retention: Compound not even tested in OVA model for Insufficient lung retention****

## CC(c1oc(=O)c2ccccc2c1-c1cccc(CN(C)C)c1)n1nc(-c2cc(O)cc(F)c2)c2c(N)ncnc21 (single isomer, unassigned) [Comparative example 3, reference compound]
[2]
  IC50: 1.5 nM
[3]; administered 2 h before OVA challenge, ns = non-significant
  % of inhibition (eosinophil recruitment in BALF): 34% ns***

## CC(c1oc(=O)c2ccccc2c1-c1cccc(CN2CCN(C)CC2)c1)n1nc(-c2cncc(O)c2)c2c(N)ncnc21 (single isomer, unassigned) [Example 1a, 3-{1-[4-Amino-3-(5-hydroxypyridin-3-yl)-1H-pyrazolo[3,4-d]pyrimidin-1-yl]ethyl}-4-{3-[(4-methylpiperazin-1-yl)methyl]phenyl}-1H-isochromen-1-one]
[2]
  IC50: 2.8 nM
  Delta cell drop-off (Cellular/enzymatic activity = THP-1 IC50 nM/Delta Ki nM): 3.1
[3]; [5]
  % of inhibition (eosinophil recruitment in BALF): 55%

## CC(c1oc(=O)c2ccccc2c1-c1cccc(CN(C)C)c1)n1nc(-c2cncc(O)c2)c2c(N)ncnc21 (single isomer, unassigned) [Example 2a, 3-(1-(4-amino-3-(5-hydroxypyridin-3-yl)-1H-pyrazolo[3,4-d]pyrimidin-1-yl)ethyl)-4-(3-((dimethylamino)methyl)phenyl)-1H-isochromen-1-one]
[2]
  IC50: 0.6 nM
  Delta cell drop-off (Cellular/enzymatic activity = THP-1 IC50 nM/Delta Ki nM): 1.2
[3]; [5]
  % of inhibition (eosinophil recruitment in BALF): 57%

## CC(c1oc(=O)c2ccccc2c1-c1cccc([C@H]2CCCN2C)c1)n1nc(-c2cncc(O)c2)c2c(N)ncnc21 (single isomer, unassigned) [Example 4a]
[2]
  IC50: 1 nM
  Delta cell drop-off (Cellular/enzymatic activity = THP-1 IC50 nM/Delta Ki nM): 10
PI3Kδ [4]
  IC50: 0.3 nM
  Ki: 0.1 nM

## CC(c1oc(=O)c2ccccc2c1-c1ccc(Cl)c(CN(C)C)c1)n1nc(-c2cncc(O)c2)c2c(N)ncnc21 (stereo not drawn) [Example 3, 3-{1-[4-Amino-3-(5-hydroxypyridin-3-yl)-1H-pyrazolo[3,4-d]pyrimidin-1-yl]ethyl}-4-{4-chloro-3-[(dimethylamino)methyl]phenyl}-1H-isochromen-1-one]
[2]
  IC50: 3.9 nM
  Delta cell drop-off (Cellular/enzymatic activity = THP-1 IC50 nM/Delta Ki nM): 9.7
PI3Kδ [4]
  IC50: 0.7 nM
  Ki: 0.4 nM

## CC(c1oc(=O)c2ccccc2c1-c1ccc(F)c(CN2CCN(C)CC2)c1)n1nc(-c2cncc(O)c2)c2c(N)ncnc21 (stereo not drawn) [Example 5, 3-{1-[4-Amino-3-(5-hydroxypyridin-3-yl)-1H-pyrazolo[3,4-d]pyrimidin-1-yl]ethyl}-4-{4-fluoro-3-[(4-methylpiperazin-1-yl)methyl]phenyl}-1H-isochromen-1-one]
[2]
  IC50: 1.8 nM
  Delta cell drop-off (Cellular/enzymatic activity = THP-1 IC50 nM/Delta Ki nM): 3.6
PI3Kδ [4]
  IC50: 1 nM
  Ki: 0.5 nM

## CC(c1oc(=O)c2ccccc2c1-c1cc(F)cc(CN2CCN(C)CC2)c1)n1nc(-c2cncc(O)c2)c2c(N)ncnc21 (stereo not drawn) [Example 6, 3-(1-(4-Amino-3-(5-hydroxypyridin-3-yl)-1H-pyrazolo[3,4-d]pyrimidin-1-yl)ethyl)-4-(3-fluoro-5-((4-methylpiperazin-1-yl)methyl)phenyl)-1H-isochromen-1-one]
[2]
  IC50: 3 nM
  Delta cell drop-off (Cellular/enzymatic activity = THP-1 IC50 nM/Delta Ki nM): 7.5
PI3Kδ [4]
  IC50: 0.8 nM
  Ki: 0.4 nM

## CC(c1cccc(-c2c(C(C)n3nc(-c4cncc(O)c4)c4c(N)ncnc43)oc(=O)c3ccccc23)c1)N(C)C (stereo not drawn) [Example 7, 3-(1-(4-Amino-3-(5-hydroxypyridin-3-yl)-1H-pyrazolo[3,4-d]pyrimidin-1-yl)ethyl)-4-(3-(1-(dimethylamino)ethyl)phenyl)-1H-isochromen-1-one]
[2]
  IC50: 3.9 nM
  Delta cell drop-off (Cellular/enzymatic activity = THP-1 IC50 nM/Delta Ki nM): 4.9
PI3Kδ [4]
  IC50: 1.6 nM
  Ki: 0.8 nM
